Target: T1, T. maritima encapsulin (TmEnc) (Thermotoga maritima, UniProt Q9WZP2)
T1 construct: gene enc; codon-optimized gene in pET-11a, E. coli Rosetta2 (DE3); no tag mentioned; icosahedral shell without cargo protein; flavin site formed by three subunits
T1 sequence (Q9WZP2 1-265): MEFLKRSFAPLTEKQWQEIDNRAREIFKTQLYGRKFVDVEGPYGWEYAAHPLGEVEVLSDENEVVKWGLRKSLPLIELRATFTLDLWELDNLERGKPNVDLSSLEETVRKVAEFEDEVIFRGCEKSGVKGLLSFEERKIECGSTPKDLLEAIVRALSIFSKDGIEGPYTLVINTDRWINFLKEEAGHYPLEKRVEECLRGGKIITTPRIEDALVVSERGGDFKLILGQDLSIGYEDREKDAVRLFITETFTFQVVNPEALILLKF
Assay: cryo-EM structure ([…] Å)
Assay type: binding
Settings: co-purified from E. coli lysate through 80°C step; exact flavin identity ambiguous, FMN modelled; exterior site near threefold axis, stacks on Trp87; Tris pH 8.0, 150 mM NaCl

Cc1cc2nc3c(=O)[nH]c(=O)nc-3n(C[C@H](O)[C@H](O)[C@H](O)COP(=O)(O)O)c2cc1C [flavin mononucleotide] was tested, and the “cryo-EM structure (2.0 Å)” value was “flavin mononucleotide (FMN) seems to be consistent with the density and has been modeled”.
